Experiment: xn = mol fraction of the nth substance listed

CO + CC[n+]1ccn(C)c1.F[B-](F)(F)F
101 kPa, x2 = 0
Conditions | viscosity [mPa·s]
303.15 K | 0.504
313.15 K | 0.442
323.15 K | 0.39
333.15 K | 0.344

CC[S+](CC)CCOCCOCCOCCOCC[S+](CC)CC.O=S(=O)([N-]S(=O)(=O)C(F)(F)F)C(F)(F)F.O=S(=O)([N-]S(=O)(=O)C(F)(F)F)C(F)(F)F + CC[n+]1ccn(C)c1.N#C[N-]C#N + O=S(=O)([N-]S(=O)(=O)C(F)(F)F)C(F)(F)F.[Li+]
100 kPa, x1 = 0.1416, x2 = 0.7549
Conditions | electrical conductivity [S/m]
298 K | 0.679
303 K | 0.979
313 K | 1.29
323 K | 1.7
333 K | 2.05
343 K | 2.41

C[N+]1(CCOCC[N+]2(C)CCCC2)CCCC1.O=S(=O)([N-]S(=O)(=O)C(F)(F)F)C(F)(F)F.O=S(=O)([N-]S(=O)(=O)C(F)(F)F)C(F)(F)F + CC[n+]1ccn(C)c1.N#C[N-]C#N + O=S(=O)([N-]S(=O)(=O)C(F)(F)F)C(F)(F)F.[Li+]
100 kPa, x1 = 0.1626, x2 = 0.7364
Conditions | electrical conductivity [S/m]
298 K | 0.806
303 K | 1.08
313 K | 1.43
323 K | 1.82
333 K | 2.2
343 K | 2.65

CO + CC[n+]1ccn(C)c1.N#C[S-]
100 kPa, x2 = 0
Conditions | viscosity [mPa·s]
298.15 K | 0.54
318.15 K | 0.43

CCCC[n+]1ccn(C)c1.CCOS(=O)(=O)[O-] + CC[n+]1ccn(C)c1.O=S(=O)([N-]S(=O)(=O)C(F)(F)F)C(F)(F)F
298.15 K, 100 kPa
Conditions | viscosity [mPa·s]
x2 = 0 | 255.2
x2 = 0.5013 | 87.6
x2 = 0.7113 | 57.11

CC[n+]1ccn(C)c1.F[B-](F)(F)F + CC[n+]1ccn(C)c1.O=S(=O)([N-]S(=O)(=O)C(F)(F)F)C(F)(F)F
100 kPa, x2 = 0
Conditions | electrical conductivity [S/m] | viscosity [mPa·s]
243.15 K | 0.026 | –
248.15 K | 0.043 | –
253.15 K | 0.066 | 308
258.15 K | 0.096 | –
263.15 K | 0.135 | 152
268.15 K | 0.184 | –
273.15 K | 0.243 | 85.2
278.15 K | 0.313 | –
283.15 K | 0.395 | 52.4
288.15 K | 0.488 | –
293.15 K | 0.594 | 34.6
298.15 K | 0.712 | –
303.15 K | – | 24.2
313.15 K | – | 17.8
323.15 K | – | 13.5
333.15 K | – | 10.6

CO + CC[n+]1ccn(C)c1.O=S(=O)([N-]S(=O)(=O)C(F)(F)F)C(F)(F)F
100 kPa, x1 = 1
Conditions | viscosity [mPa·s]
298.15 K | 0.55
308.15 K | 0.48
318.15 K | 0.43

Cc1cnc[nH]1 + CC[n+]1ccn(C)c1.[Cl-]
101.33 kPa, x2 = 0.667
Conditions | viscosity [mPa·s]
303.15 K | 326
313.15 K | 151.3
323.15 K | 84.8
333.15 K | 51.8
343.15 K | 32.73
353.15 K | 22.56

CO + CC[n+]1ccn(C)c1C.F[B-](F)(F)F
Conditions | viscosity [mPa·s]
308.15 K, 101.3 kPa, x2 = 0 | 0.467

CC[n+]1ccn(C)c1.F[B-](F)(F)F + CN(C)C=O
101 kPa
Conditions | viscosity [mPa·s]
303.15 K, x2 = 0.2016 | 16.52
313.15 K, x2 = 0 | 20.41
313.15 K, x2 = 0.3987 | 7.35
313.15 K, x2 = 0.5005 | 5.397
313.15 K, x2 = 0.7997 | 1.806
323.15 K, x2 = 0 | 15.35
323.15 K, x2 = 0.2994 | 7.73
323.15 K, x2 = 0.5005 | 4.475
323.15 K, x2 = 0.6004 | 3.226
323.15 K, x2 = 0.8999 | 1.01

CC[n+]1ccn(C)c1.COP(=O)([O-])OC + CO
101 kPa
Conditions | viscosity [mPa·s]
298.15 K, x2 = 0.598 | 20.62
318.15 K, x2 = 0.799 | 3.265
328.15 K, x2 = 0.399 | 20.82
333.15 K, x2 = 0.399 | 18.06

CC[n+]1ccn(C)c1.F[B-](F)(F)F + CO
viscosity [mPa·s], 101 kPa
Conditions | x1 = 0.0999 | x1 = 0.2 | x1 = 0.3 | x1 = 0.3996 | x1 = 0.5005 | x1 = 0.5973 | x1 = 0.7011 | x1 = 0.8013 | x1 = 0.8995 | x1 = 1
303.15 K | 0.945 | 1.6 | 2.45 | 3.62 | 5.25 | 7.32 | 10.4 | 14.5 | 20 | 28
313.15 K | 0.822 | 1.36 | 2.08 | 3.03 | 4.34 | 5.96 | 8.24 | 11.2 | 15.1 | 20.4
323.15 K | 0.718 | 1.19 | 1.79 | 2.6 | 3.67 | 4.96 | 6.82 | 8.97 | 11.7 | 15.3
333.15 K | 0.636 | 1.06 | 1.6 | 2.3 | 3.24 | 4.25 | 5.74 | 7.47 | 9.43 | 12.1

CC[n+]1ccn(C)c1.O=S(=O)([N-]S(=O)(=O)C(F)(F)F)C(F)(F)F + CO
100 kPa
Conditions | viscosity [mPa·s]
298.15 K, x2 = 0.5988 | 6.44
308.15 K, x2 = 0.4005 | 9.17
308.15 K, x2 = 0.8978 | 1.32
313.15 K, x2 = 0.4005 | 8.11
313.15 K, x2 = 0.5088 | 6.09
313.15 K, x2 = 0.6909 | 3.44
318.15 K, x2 = 0.1965 | 11.67
323.15 K, x2 = 0.7961 | 1.82
